Test results published in patent publication US20200031778A1, “NOVEL 5-SUBSTITUTED IMIDAZOLYLMETHYL DERIVATIVES” (Bayer CropScience Aktiengesellschaft, priority 2016, published 2020).

What was measured:
[1] = Log P by HPLC on reversed phase columns (EEC directive 79/831 Annex V.A8; methods [a], [b], [c]); assay type: physicochemical; conditions: reversed phase HPLC column; method [a]: LC-UV, acidic range, 0.1% formic acid in water and acetonitrile as eluent (linear gradient from 10% to 95% acetonitrile)
Outline: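 Log P derived from retention times, interpolated linearly between bracketing straight-chain alkan-2-ones (3–16 carbons) of known Log P. Eluents ran acetonitrile 10% to 95% against water with 0.1% formic acid ([a], acidic), 0.001 M ammonium acetate ([b], neutral) or 0.1% phosphoric acid ([c], acidic); UV read-out.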

Septoria tritici = assay: Example IX-B: in vivo preventive test on Septoria tritici (leaf spot on wheat); conditions: Zymoseptoria tritici, 576 h; compounds of formula IX; 500 ppm of active ingredient; wheat plants, preventive spray; evaluated 24 days after inoculation; read-out: efficacy
Protocol: Example IX-B: In Vivo Preventive Test on Septoria Tritici (Leaf Spot on Wheat)
(§1) The active ingredients are made soluble and homogenized in a mixture of Dimethyl sulfoxide/Acetone/Tween® 80 and then diluted in water to the desired concentration.
(§2) The young plants of wheat are treated by spraying the active ingredient prepared as described above. Control plants are treated only with an aqueous solution of Acetone/Dimethyl sulfoxide/Tween® 80.
After 24 hours, the plants are contaminated by spraying the leaves with an aqueous suspension of Septoria tritici spores. The contaminated wheat plants are incubated for 72 hours at 18° C. and at 100% relative humidity and then for 21 days at 20° C. and at 90% relative humidity.
The test is evaluated 24 days after the inoculation. 0% means an efficacy which corresponds to that of the control plants while an efficacy of 100% means that no disease is observed.

Uromyces appendiculatus = assay: Example IX-D: in vivo preventive test on Uromyces appendiculatus (bean rust); conditions: 264 h, compounds of formula IX, 500 ppm of active ingredient, bean plants, preventive spray, evaluated 11 days after inoculation, read-out: efficacy
Protocol: Example IX-D: In Vivo Preventive Test on Uromyces Appendiculatus (Bean Rust)
as §1
The young plants of bean are treated by spraying the active ingredient prepared as described above. Control plants are treated only with an aqueous solution of Acetone/Dimethyl sulfoxide/Tween® 80.
After 24 hours, the plants are contaminated by spraying the leaves with an aqueous suspension of Uromyces appendiculatus spores. The contaminated bean plants are incubated for 24 hours at 20° C. and at 100% relative humidity and then for 10 days at 20° C. and at 70-80% relative humidity.
(§3) The test is evaluated 11 days after the inoculation. 0% means an efficacy which corresponds to that of the control plants while an efficacy of 100% means that no disease is observed.
control plants while an efficacy of 100% means that no disease was observed.

Puccinia recondita = assay: Example IX-A: in vivo preventive test on Puccinia recondita (brown rust on wheat); conditions: 264 h, compounds of formula IX, 500 ppm of active ingredient, wheat plants, preventive spray, evaluated 11 days after inoculation, read-out: efficacy
Protocol: Example IX-A: In Vivo Preventive Test on Puccinia Recondita (Brown Rust on Wheat)
as §1, §2
After 24 hours, the plants are contaminated by spraying the leaves with an aqueous suspension of Puccinia recondita spores. The contaminated wheat plants are incubated for 24 hours at 20° C. and at 100% relative humidity and then for 10 days at 20° C. and at 70-80% relative humidity.
as §3

Sphaerotheca fuliginea = assay: Example IX-C: in vivo preventive test on Sphaerotheca fuliginea (powdery mildew on cucurbits); conditions: Podosphaera fuliginea, 360 h; compounds of formula IX; 500 ppm of active ingredient; gherkin plants, preventive spray; evaluated 15 days after inoculation; read-out: efficacy
Protocol: Example IX-C: In Vivo Preventive Test on Sphaerotheca Fuliginea (Powdery Mildew on Cucurbits)
as §1
The young plants of gherkin are treated by spraying the active ingredient prepared as described above. Control plants are treated only with an aqueous solution of Acetone/Dimethyl sulfoxide/Tween® 80.
After 24 hours, the plants are contaminated by spraying the leaves with an aqueous suspension of Sphaerotheca fuliginea spores. The contaminated gherkin plants are incubated for 72 hours at 18° C. and at 100% relative humidity and then for 12 days at 20° C. and at 70-80% relative humidity.
The test is evaluated 15 days after the inoculation. 0% means an efficacy which corresponds to that of the control plants while an efficacy of 100% means that no disease is observed.

Row | SMILES | chromatographic logP [1] | pest or weed control at 500 ppm (Septoria tritici) | pest or weed control at 500 ppm (Uromyces appendiculatus) | pest or weed control at 500 ppm (Puccinia recondita) | pest or weed control at 500 ppm (Sphaerotheca fuliginea)
1 | N#Cc1cncn1CC(=O)c1ccc(Oc2ccc(C(F)(F)F)nc2)nc1C(F)(F)F [IX-131] | 2.92 | 90 to 100% | – | 80 to 89% | 90 to 100%
2 | N#Cc1cncn1CC(=O)c1ccc(Cl)cc1Cl [IX-99] | 2.34 | 90 to 100% | – | 70 to 79% | 90 to 100%
3 | O=C(Cn1cncc1C(F)(F)F)c1ccc(Oc2ccc(I)cc2)cc1F [IX-49] | 4.16 | 90 to 100% | – | 80 to 89% | –
4 | O=C(Cn1cncc1Br)c1ccc(Oc2ccc(Cl)cc2)cc1 [IX-22] | 2.63 | 90 to 100% | – | 80 to 89% | 90 to 100%
5 | N#Cc1cncn1CC(=O)c1ccc(Oc2ccc(Br)cc2)nc1C(F)(F)F [IX-118] | 3.39 | 90 to 100% | 80 to 89% | – | 90 to 100%
6 | N#Cc1cncn1CC(=O)c1ccc(Oc2ccc(C(F)(F)F)cc2)nc1C(F)(F)F [IX-137] | 3.35 | 90 to 100% | – | 90 to 100% | 90 to 100%
7 | O=C(Cn1cncc1Cl)c1ccc(Oc2ccc(Cl)cc2)cc1 [IX-21] | 2.63 | 90 to 100% | – | 80 to 89% | 90 to 100%
8 | N#Cc1cncn1CC(=O)c1ccccc1Cl [IX-126] | 1.81 | 80 to 89% | – | – | 70 to 79%
9 | N#Cc1cncn1CC(=O)c1ccc(Oc2ccc(Cl)cc2F)nc1C(F)(F)F [IX-128] | 3.14 | 90 to 100% | – | 70 to 79% | 90 to 100%
10 | N#Cc1cncn1CC(=O)c1ccc(Oc2ccc(C(F)F)cc2)nc1C(F)(F)F [IX-132] | 2.8 | 90 to 100% | – | 90 to 100% | 90 to 100%
11 | CC(=O)c1cncn1CC(=O)c1ccc(Oc2ccc(Br)cc2)nc1C(F)(F)F [IX-122] | 3.31 | 90 to 100% | – | – | 90 to 100%
12 | N#Cc1cncn1CC(=O)c1ccc(OC(F)(F)F)cc1 [IX-116] | 2.12 | 80 to 89% | – | – | 80 to 89%
13 | N#Cc1cncn1CC(=O)c1ccc(Oc2ccc(OC(F)(F)F)cc2)nc1C(F)(F)F [IX-129] | 3.32 | 90 to 100% | – | 90 to 100% | 90 to 100%
14 | O=C(Cn1cncc1Br)c1ccc(Oc2ccc(S(F)(F)(F)(F)F)cc2)nc1Cl [IX-26] | 3.23 | 80 to 89% | – | 80 to 89% | 90 to 100%
15 | N#Cc1cncn1CC(=O)c1ccc(Cl)cc1 [IX-90] | 2.04 | 90 to 100% | – | 80 to 89% | 80 to 89%

The next lines start with results.

Row | chromatographic logP [1] | SMILES | pest or weed control at 500 ppm (Septoria tritici) | pest or weed control at 500 ppm (Uromyces appendiculatus) | pest or weed control at 500 ppm (Puccinia recondita) | pest or weed control at 500 ppm (Sphaerotheca fuliginea)
16 | 3.55 | CC(=O)c1cncn1CC(=O)c1cnc(Oc2ccc(Cl)cc2)cc1C(F)(F)F [IX-120] | 90 to 100% | 80 to 89% | 90 to 100% | –
17 | 2.2 | O=C(Cn1cncc1Cl)c1ccc(Oc2ccc(Cl)nc2)cc1Cl [IX-44] | 90 to 100% | – | 80 to 89% | 90 to 100%
18 | 2.52 | O=C(Cn1cncc1Br)c1ccc(Oc2ccc(Cl)cn2)cc1Cl [IX-55] | 90 to 100% | – | 80 to 89% | 90 to 100%
19 | 3.46 | N#Cc1cncn1CC(=O)c1cnc(Oc2ccc(Cl)cc2F)cc1C(F)(F)F [IX-96] | 90 to 100% | – | 80 to 89% | 90 to 100%
20 | 2.25 | O=C(Cn1cncc1Br)c1ccc(Oc2ccc(Cl)nc2)cc1Cl [IX-56] | 90 to 100% | – | 80 to 89% | –
21 | 3.13 | N#Cc1cncn1CC(=O)c1cnc(Oc2ccc(C(F)F)cc2)cc1C(F)(F)F [IX-98] | 90 to 100% | 90 to 100% | 80 to 89% | –
22 | 2.68 | N#Cc1cncn1CC(=O)c1ccc(Oc2ccc(Br)nc2)nc1C(F)(F)F [IX-144] | 90 to 100% | – | 70 to 79% | 90 to 100%
23 | 2.8 | N#Cc1cncn1CC(=O)c1ccc(Oc2ccc(Cl)cn2)cc1Cl [IX-70] | 70 to 79% | – | 80 to 89% | 90 to 100%
24 | 2.84 | O=C(Cn1cncc1Cl)c1ccc(Oc2ccc(C(F)(F)F)cc2)cc1 [IX-17] | 90 to 100% | – | 80 to 89% | 90 to 100%
25 | 2.75 | O=C(Cn1cncc1Cl)c1ccc(Oc2ccc(Cl)cn2)cc1C(F)(F)F [IX-72] | 90 to 100% | – | 80 to 89% | 70 to 79%
26 | 3.51 | O=C(Cn1cncc1Cl)c1ccc(Oc2ccc(C(F)(F)F)cc2)cc1C(F)(F)F [IX-53] | 90 to 100% | 90 to 100% | 90 to 100% | –
27 | 2.53 | O=C(Cn1cncc1F)c1cnc(Oc2ccc(C(F)F)cc2)cc1C(F)(F)F [IX-97] | 90 to 100% | 90 to 100% | 80 to 89% | –
28 | 2.55 | N#Cc1cncn1CC(=O)c1ccc(Oc2ccc(Cl)nc2)nc1C(F)(F)F [IX-140] | 90 to 100% | – | – | 90 to 100%
29 | 3.35 | O=C(Cn1cncc1Br)c1ccc(Oc2ccc(Cl)cc2)cc1C(F)(F)F [IX-41] | 90 to 100% | – | 80 to 89% | –
30 | 3 | O=C(Cn1cncc1Cl)c1ccc(Oc2ccc(Cl)cc2)nc1C(F)(F)F [IX-52] | 90 to 100% | – | 90 to 100% | 70 to 79%
31 | 2.71 | N#Cc1cncn1CC(=O)c1cnc(Oc2ccc(Br)nc2)cc1C(F)(F)F [IX-143] | 90 to 100% | – | 80 to 89% | 90 to 100%
32 | 3.01 | N#Cc1cncn1CC(=O)c1ccc(Oc2ccc(Cl)cn2)cc1C(F)(F)F [IX-71] | 90 to 100% | – | 90 to 100% | 90 to 100%
33 | 2.13 | O=C(Cn1cncc1Br)c1ccc(Oc2ccc(Cl)nc2)nc1Cl [IX-27] | 90 to 100% | – | – | 90 to 100%
34 | 2.45 | O=C(Cn1cncc1Cl)c1ccc(Oc2ccc(Cl)nc2)cc1C(F)(F)F [IX-28] | 90 to 100% | – | 80 to 89% | 90 to 100%
35 | 3.51 | O=C(Cn1cncc1Br)c1ccc(Oc2ccc(C(F)(F)F)cc2)cc1C(F)(F)F [IX-51] | 90 to 100% | – | 80 to 89% | 90 to 100%
36 | 2.62 | N#Cc1cncn1CC(=O)c1cnc(Oc2ccc(Cl)nc2)cc1C(F)(F)F [IX-141] | 90 to 100% | – | – | 90 to 100%
